“Also recorded” adds a separate entry of the source.
Legend:
Tra-1-60 antibody = assay: Glycan microarray analysis (Consortium for Functional Glycomics printed array v3.2), binding of Tra-1-60
Description: (§1) Tra-1-81 and Tra-1-60 antibodies were from Chemicon (MAB4381 and MAB4361, respectively).
(§2) Glycan microarray analysis was carried out by the Consortium for Functional Glycomics. Glycan microarrays were printed as described (Blixt 2004). Version 3.2 of the human printed glycan array was used for analysis. Binding analysis was performed at […] of antibody. Data are reported as average RFU of 6 replicates after removal of highest and lowest values.

Tra-1-81 antibody = assay: Glycan microarray analysis (Consortium for Functional Glycomics printed array v3.2), binding of Tra-1-81; set-up: RFU (glycan binding signal of Tra-1-81): dose or concentration left out as unconfirmed; conditions: for binding of Tra-1-81 to the glycan, in words: glycan microarray; for RFU (glycan binding signal of Tra-1-81): Tra-1-81 (Chemicon MAB4381), average RFU of 6 replicates after removal of highest and lowest values
Description: as §1, §2

binding of Tra-1-60 to the glycan, in words (Tra-1-60 antibody) | binding of Tra-1-81 to the glycan, in words (Tra-1-81 antibody) | RFU (glycan binding signal of Tra-1-81) (Tra-1-81 antibody) | Substance | binding of Tra-1-81 to the glycan, in words (Tra-1-81 antibody; listed as Galβ1-3GlcNAcβ1-3Galβ1-4GlcNAc)
very weak or non-essential binding | weakly bound | – | Galb1-3GlcNAcb1-3Galb1-4Glcb-Sp10 [Chart # 131] | –
– | weakly bound | – | Lewis a | –
– | specifically bound | 147 RFU | Galb1-3GlcNacb1-3(Galb1-3GlcNacb1-3Galb1-4GlcNacb1-6)Galb1-4Glcb-Sp0 [Chart # 379] | –
exclusively bound | – | 721 RFU | Galb1-3GlcNAcb1-3Galb1-4GlcNAcb-Sp0 [Chart # 130] | binding; also recorded: specifically bound
